Data on eight molecules can be found in patent publication US4029811A, “Certain antiinflammatory dihydrobenzofuran and dihydronaphthofuran acetic acid compounds” (SCHIAPPARELLI - Stabilimenti Chimici Farmaceutici Riuniti …, priority 1974, dated 1977).

The structures appear in SMILES notation. Entries after “also recorded” stand apart in the source; their conditions may differ. Counter-ions that a name gives are not always drawn.

In general, inhibition in vivo refers to the change of the read-out against control, counted positive when it falls.

One data set deals with rat hind paw edema. Nature of the data set: Carrageenin-induced edema assay. The class given is in vivo. The settings on record: po, 3 hours after carrageenin, tested compounds as sodium salts; for inhibition in vivo at 200 mg/kg: 200 mg/Kg/os; for inhibition in vivo at 12.5 mg/kg: 12.5 mg/Kg/os; for inhibition in vivo at 25 mg/kg: 25 mg/Kg/os; for inhibition in vivo at 50 mg/kg: 50 mg/Kg/os; for inhibition in vivo at 100 mg/kg: 100 mg/Kg/os; for inhibition in vivo at 10 mg/kg: 10 mg/Kg/os; for inhibition in vivo at 30 mg/kg: 30 mg/Kg/os; for inhibition in vivo at 90 mg/kg: 90 mg/Kg/os. The procedure: Paw edema was measured by fluid displacement when the paw was immersed in a cup of mercury.
(In general: The carrageenan paw model is a standard test of acute inflammation.)

A further data set deals with abdominal stretching. The data set is described as follows: Anti-writhing assay (acetic acid). The following applies: 200 mg/Kg p.o., 20 minutes before 3% acetic acid i.p.; counted 20 minutes. The class given is in vivo, mouse. The procedure: Male albino Swiss Mice, each weighing 20 to 22 g, were used. The animals were fasted for 18 hours before pharmacological treatment. […] The number of abdominal stretching was counted for 20 minutes following the acetic acid injection.
(In general: An intraperitoneal irritant provokes the stretching counted in writhing tests.)

The test system of data set [1] is experimental polyarthritis. Nature of the data set: Experimental polyarthritis assay (modified Freund's adjuvant). The following applies: for Activity in experimental polyarthritis assay: 14 days, paw volume, FIG. 1. The class given is in vivo, rat. The procedure: Three groups of 10 Wistar rats were used. […] Pharmacological treatment was carried out for 14 days, while the third group served as control. Paw edema was measured as for the carrageenin-induced edema. Results are reported in FIG. 1 as % increase of paw volume immediately before modified Freund's adjuvant injection.

Data set [2] concerns Wistar rats. Nature of the data set: Long-term toxicity (60 days oral) in Wistar rats. The class given is in vivo. The settings on record: 60 mg/kg daily orally. The procedure: Compound (I) has been tested by employing 40 Wistar rats subdivided into 2 groups of 20 animals (10 male and 10 female). One of the groups (reference group) was fed in conventional manner, while 60 mg/kg daily of the compound on test were administered orally to the animals of the other group. The treatment was continued during 60 days: every 15 days the following aspects were checked: body weight, blood pressure (by incruent method), cardiac frequency, hemochromocytometric examination and urine analysis.
At the end of treatment, all animals have been sacrificed and subjected to further examinations (hemochromocytometric, serum-biochemical, enzymatic, electrolytic and autopsic examination).

In data set [3] the test system is Wistar rats. Nature of the data set: Teratogenic studies in Wistar rats. Format: in vivo. The settings on record: 30 mg/Kg and 60 mg/Kg orally. The procedure:
Tests in the attempt of discovering any teratogenic and fetal-toxicity effects have been carried out in conventional manner on Wistar rats, to which compound (I) has been administered orally at dosages of 30 mg/Kg and 60 mg/Kg.

Data set [4] deals with painful osteoarticular processes. The data set is described as follows: Clinical tests in patients with painful osteoarticular processes. Format: in vivo, human. The procedure: 14 patients were treated with a dosage of 100 mg three times daily, during a period of three days; in further seven cases the treatment was 200--300 mg daily during 8-10 days. The remaining four patients received a dosage of 200 mg three times daily during periods of three to five days.

Setting [5] is: case 1, 100 mg three times daily.
[6] abbreviates: case 1, lumbosacral arthrosis, 100 mg three times daily.

Consider `CCC1CCc2cc(CC(=O)O)ccc2O1` (stereo not drawn) [(II), 2-ethylchroman-6-yl-acetic acid], for which, in the data set on rat hind paw edema, the inhibition in vivo at 200 mg/kg was 31%. Besides, in the data set on abdominal stretching, the “% Stretching decrease from the control” value turned out to be 42%.

In the case of `O=C(O)Cc1ccc2c3c(ccc2c1)OCC3` [(III), 1,2-Dihydronaphtho [2,1-b] furan-7-acetic acid], in the data set with rat hind paw edema, the inhibition in vivo at 200 mg/kg is 51%. The “Activity relative to compound (I)” value in data set [1] (same conditions as for compound (I)) was “quite analogous to the activity of compound (I)”. Also, the “% Stretching decrease from the control” value in the data set with abdominal stretching is given as 73%.

Consider `O=C(O)Cc1ccc2c3c(ccc2c1)OCCC3` [(IV), 1H-2,3-Dihydronaphtho [2,1-b]pyran-8-yl-acetic acid], for which the inhibition in vivo at 200 mg/kg with rat hind paw edema turned out to be 64%. For the same molecule, the “% Stretching decrease from the control” value in the data set with abdominal stretching was 62%.

In the case of `CCC1Cc2cc(C(C)C(=O)O)ccc2O1` (stereo not drawn) [(VI), 2(2-Ethyl-2,3-dihydrobenzofuran-5-yl)-propionic acid], in the data set on rat hind paw edema, the inhibition in vivo at 12.5 mg/kg was found to be 19.3%, the inhibition in vivo at 25 mg/kg came to 41.6%, the inhibition in vivo at 50 mg/kg was determined as 43.9% and the inhibition in vivo at 100 mg/kg came to 59.1%.

As to `CCC1CCc2cc(C(C)C(=O)O)ccc2O1` (stereo not drawn) [(VII), 2(2-Ethylchroman-6-yl)-propionic acid], in the data set on rat hind paw edema, the inhibition in vivo at 12.5 mg/kg worked out at 28.7%, the inhibition in vivo at 25 mg/kg stood at 50.2%, the inhibition in vivo at 50 mg/kg came to 31.2% and the inhibition in vivo at 100 mg/kg is 45.9%.

As for `CCC1Cc2cc(CC(=O)O)ccc2O1` (stereo not drawn) [Compound (I), 2,3-dihydro-2-ethylbenzofuran-5-yl-acetic acid], in the data set with Wistar rats [2] (60 days), the Food consumption entry was “The food consumption was regular”. In addition, in the data set with Wistar rats [2] (60 days), the Lethal cases result is reported as “No lethal cases have been observed”. The “Alterations induced by prolonged administration” value with Wistar rats [2] (60 days, conclusion) was “does not induce biologically relevant alterations”. Further, the “Hemochromocytometric, serum-biochemical, enzymatic, electrolytic and autopsic examination” value in the data set on Wistar rats [2] (at end of 60 days treatment) is listed as “No significant variations have been observed”. In addition, in the data set with Wistar rats [2] (checked every 15 days during 60 days, versus reference group), the “Body weight increase, blood pressure, cardiac frequency, hemochromocytometric examination and urine analysis” value is recorded as “No differences have been noted”. The “Pregnancy disturbances and/or toxic effects on fetus” value with Wistar rats [3] is “No. pregnancy disturbances and/or toxic effects on fetus have been observed”. Also, in the data set on rat hind paw edema, the inhibition in vivo at 10 mg/kg is 28%. Moreover, in the data set on rat hind paw edema, the inhibition in vivo at 30 mg/kg was 46%. In addition, the inhibition in vivo at 90 mg/kg in the data set on rat hind paw edema is 58%. The inhibition in vivo at 200 mg/kg in the data set on rat hind paw edema worked out at 68%. Further, the “Activity in experimental polyarthritis assay” value in data set [1] (200 mg/Kg p.o.) is “significant activity”. Moreover, the “Activity versus reference drug (phenylbutazone)” value in data set [1] (200 mg/Kg p.o., at least in the first 9 days of treatment) is on record as “superior to the reference drug”. For the same molecule, the “% Stretching decrease from the control” value with abdominal stretching was 81%. For the same molecule, the Side effects result was “no side effects having been observed” in data set [4] (25 patients, oral); “no side effects having been observed” in data set [4] (setting [5]); “No side effect” in data set [4] (case 2, 100 mg three times daily, eight days); “No side effect” in data set [4] (case 3, 100 mg three times daily, seven days); “no side effect” in data set [4] (case 4, 100 then 200 mg three times daily); “without any side effect” in data set [4] (case 5, 100 mg three times daily, five days). Further, the Tolerability result in data set [4] (25 patients, oral) is on record as “always well tolerated”; in data set [4] (setting [5]) it was “exceedingly well tolerated”. The Antalgic-antiinflammatory effect result in data set [4] (25 patients, oral, overall) is “significant antalgic-antiinflammatory effect”. Moreover, in data set [4] (setting [6]), the “Clinical response, first day” value was “fair symptomatologic relief”. Also, in data set [4] (setting [6]), the “Clinical response, second day” value was “improvement persists on the second day with an increased possibility for movement and gait”. In data set [4] (setting [6]), the “Clinical response, third day” value is on record as “the painful pattern has almost totally regressed”. Besides, the Clinical response entry was “clear symptomatologic relief; gait is easier on the 4th and 5th day and mobility of the knee joint is improved; also recorded: Clearly positive clinical appreciation” in data set [4] (case 2, polyarthrosis, 100 mg three times daily, eight days); “The patient reports relief; disappearance of cephalgia, possibility of rotating the cervical column initially blocked by pain; also recorded: almost total regression of algic aggravation” in data set [4] (case 3, cervical arthrosis, 100 mg three times daily, seven days); “satisfactory response of the painful pattern with a progressive reduction in algic symptomatology; also recorded: Appreciably favourable clinical response” in data set [4] (case 4, bilateral coxo-arthrosis, 100 mg three times daily days 1-2, 200 mg three times daily day 3); “good antalgic effect; improved freedom of active and passive movements of the spinal column” in data set [4] (case 5, spinal arthrosis, 100 mg three times daily, five days). The “Antalgic-antiinflammatory effect judged slight” value in data set [4] (five of 25 cases) stood at 20%. Also, in data set [4] (seventeen of 25 cases), the “Antalgic-antiinflammatory effect judged good or very good” value turned out to be 68%. For the same molecule, the “Antalgic-antiinflammatory effect judged none” value in data set [4] (three of 25 cases) is reported as 12%.

As to `CC(C)Cc1ccc(C(C)C(=O)O)cc1` (stereo not drawn) [Ibuprofen, 2-(4-isobutyl-phenyl)-propionic acid-sodium salt, reference compound], in the data set on rat hind paw edema, the inhibition in vivo at 12.5 mg/kg came out at 42.1%, the inhibition in vivo at 25 mg/kg was determined as 38.1%, the inhibition in vivo at 50 mg/kg amounted to 52.1% and the inhibition in vivo at 100 mg/kg stood at 46.9%.

`CCCCC1C(=O)N(c2ccccc2)N(c2ccccc2)C1=O` [Phenylbutazone, reference compound]: in the data set on rat hind paw edema, the inhibition in vivo at 10 mg/kg was 8%, the inhibition in vivo at 30 mg/kg stood at 17%, the inhibition in vivo at 90 mg/kg came out at 20% and the inhibition in vivo at 200 mg/kg is 42%. For the same molecule, in data set [1] (200 mg/Kg p.o.), the “Activity in experimental polyarthritis assay” value is recorded as “significant activity”. For the same molecule, the “% Stretching decrease from the control” value with abdominal stretching is given as 43%.
